# Results reported in patent publication US10100058B2, “Fused heterocyclic compounds as CaM kinase inhibitors” (Gilead Sciences, Inc., priority 2016, dated 2018).
# Target: recombinant CaMKIIδ (Homo sapiens (Human), UniProt Q13557)
# Assay: CaMKIIδ biochemical assay (HTRF)
# Conditions: 10 pM CaMKIIδ, 110 nM calmodulin, 12 μM ATP, 1 hour; read-out: CAMKIID-HTRF-384V2 (IC50 - nM)
# Experimental: CaMKIIδ Biochemical Assay
# The biochemical activity of recombinant CaMKIIδ was measured by monitoring the phosphorylation of a target peptide using Homogenous Time Resolved Fluorescence (HTRF) technology from CisBio Bioassays.
row,IC50 [nM],Structure (SMILES)
1,0.13,"CCN(CC)[C@@H](C)CNC(=O)c1cc(-c2cnn3ccc(-c4ccsc4)nc23)nc(N2CC(OC)C2)c1 [Example 165, (S)—N-(2-(diethylamino)propyl)-2-(3-methoxyazetidin-1-yl)-6-(5-(thiophen-3-yl)pyrazolo[1,5-a]pyrimidin-3-yl)isonicotinamide]"
2,45.2,"N[C@H]1CCN(C(=O)c2ccnc(-c3cnn4ccc(-c5ccccc5)nc34)c2)C1 [Example 87, (S)-(3-aminopyrrolidin-1-yl)(2-(5-phenylpyrazolo[1,5-a]pyrimidin-3-yl)pyridin-4-yl)methanone]"
3,32.7,"COc1cc(C(=O)N2CCCC[C@@H]2CN)cc(-c2cnn3ccc(-c4ccccc4)nc23)n1 [Example 132, (R)-(2-(aminomethyl)piperidin-1-yl)(2-methoxy-6-(5-phenylpyrazolo[1,5-a]pyrimidin-3-yl)pyridin-4-yl)methanone]"
4,18.8,"N[C@H]1CCCN(C(=O)c2ccnc(-c3cnn4ccc(-c5cccs5)nc34)c2)C1 [Example 83, (S)-(3-aminopiperidin-1-yl)(2-(5-(thiophen-2-yl)pyrazolo[1,5-a]pyrimidin-3-yl)pyridin-4-yl)methanone]"
5,0.17,"CCN(CC)[C@@H](C)CNC(=O)c1cc(NCC(=O)NC)nc(-c2cnn3ccc(-c4cccs4)nc23)c1 [Example 246, (S)—N-(2-(diethylamino)propyl)-2-((2-(methylamino)-2-oxoethyl)amino)-6-(5-(thiophen-2-yl)pyrazolo[1,5-a]pyrimidin-3-yl)isonicotinamide]"
6,1.93,"CCN(CC)[C@@H](C)CNC(=O)c1cc(-c2cnn3ccc(-c4cccs4)nc23)nc(N2CC[C@H]2C(=O)O)c1 [Example 296, (S)-1-(4-(((S)-2-(diethylamino)propyl)carbamoyl)-6-(5-(thiophen-2-yl)pyrazolo[1,5-a]pyrimidin-3-yl)pyridin-2-yl)azetidine-2-carboxylic Acid]"
7,0.18,"CCN(CC)[C@@H](C)CNC(=O)c1cc(-c2cnn3ccc(-c4cccs4)nc23)nc(N2CCC(C#N)C2)c1 (stereo in doubt) [Example 313, 2-((S)-3-cyanopyrrolidin-1-yl)-N—((S)-2-(diethylamino)propyl)-6-(5-(thiophen-2-yl)pyrazolo[1,5-a]pyrimidin-3-yl)isonicotinamide]"
8,0.27,"CCN(CC)[C@@H](C)CNC(=O)c1cc(NC(=O)OC(C)C)nc(-c2cnn3ccc(-c4cccs4)nc23)c1 [Example 187, (S)-isopropyl (4-((2-(diethylamino)propyl)carbamoyl)-6-(5-(thiophen-2-yl)pyrazolo[1,5-a]pyrimidin-3-yl)pyridin-2-yl)carbamate]"
9,0.21,"CCN(CC)[C@@H](C)CNC(=O)c1cc(-c2cnn3ccc(-c4cccs4)nc23)nc(N2CCNCC2)c1 [Example 207, (S)—N-(2-(diethylamino)propyl)-2-(piperazin-1-yl)-6-(5-(thiophen-2-yl)pyrazolo[1,5-a]pyrimidin-3-yl)isonicotinamide]"
10,0.1,"CCN(CC)[C@@H](C)CNC(=O)c1cc(-c2cnn3ccc(-c4cccs4)nc23)nc(N2CC(N(C)C)C2)c1 [Example 206, (S)—N-(2-(diethylamino)propyl)-2-(3-(dimethylamino)azetidin-1-yl)-6-(5-(thiophen-2-yl)pyrazolo[1,5-a]pyrimidin-3-yl)isonicotinamide]"
11,0.05,"NC[C@H]1CCCCN1C(=O)c1cc(Cl)nc(-c2cnn3ccc(-c4cccs4)nc23)c1 [Example 111, (R)-(2-(aminomethyl)piperidin-1-yl)(2-chloro-6-(5-(thiophen-2-yl)pyrazolo[1,5-a]pyrimidin-3-yl)pyridin-4-yl)methanone]"
12,141,"CCN(CC)[C@@H](C)CNC(=O)c1cc(NCC2COC2)nc(-c2cnn3ccc(-c4cccs4)nc23)c1 [Example 192, (S)—N-(2-(diethylamino)propyl)-2-((oxetan-3-ylmethyl)amino)-6-(5-(thiophen-2-yl)pyrazolo[1,5-a]pyrimidin-3-yl)isonicotinamide]"
13,0.04,"CCN(CC)[C@@H](C)CNC(=O)c1cc(N)nc(-c2cnn3ccc(-c4cccs4)nc23)c1 [Example 102, (S)-2-amino-N-(2-(diethylamino)propyl)-6-(5-(thiophen-2-yl)pyrazolo[1,5-a]pyrimidin-3-yl)isonicotinamide]"
14,10.6,"CCN[C@@H](C)CNC(=O)c1cc(-c2cnn3ccc(-c4cccs4)nc23)nc(N2CC[C@H]2C(=O)NC)c1 [Example 306, N—((S)-2-(ethylamino)propyl)-2-((S)-2-(methylcarbamoyl)azetidin-1-yl)-6-(5-(thiophen-2-yl)pyrazolo[1,5-a]pyrimidin-3-yl)isonicotinamide]"
15,0.22,"CCNC(=O)[C@@H]1CCN1c1cc(C(=O)NC[C@H](C)N(CC)CC)cc(-c2cnn3ccc(-c4cccs4)nc23)n1 [Example 276, N—((S)-2-(diethylamino)propyl)-2-((S)-2-(ethylcarbamoyl)azetidin-1-yl)-6-(5-(thiophen-2-yl)pyrazolo[1,5-a]pyrimidin-3-yl)isonicotinamide]"
16,43.1,"C[C@H](N)CNC(=O)c1ccnc(-c2cnn3ccc(-c4ccccc4)nc23)c1 [Example 44, (S)—N-(2-aminopropyl)-2-(5-phenylpyrazolo[1,5-a]pyrimidin-3-yl)isonicotinamide]"
17,0.46,"CCN(CC)[C@@H](C)CNC(=O)c1cc(-c2cnn3ccc(-c4cccs4)nc23)nc(N2CC[C@H]2C(=O)NCCF)c1 [Example 281, N—((S)-2-(diethylamino)propyl)-2-((S)-2-((2-fluoroethyl)carbamoyl)azetidin-1-yl)-6-(5-(thiophen-2-yl)pyrazolo[1,5-a]pyrimidin-3-yl)isonicotinamide]"
18,0.2,"CCN(CC)[C@@H](C)CNC(=O)c1cc(-c2cnn3ccc(-c4cccs4)nc23)nc(N2CCO[C@H](CO)C2)c1 [Example 264, N—((S)-2-(diethylamino)propyl)-2-((S)-2-(hydroxymethyl)morpholino)-6-(5-(thiophen-2-yl)pyrazolo[1,5-a]pyrimidin-3-yl)isonicotinamide]"
19,0.32,"CCN(CC)[C@@H](C)CNC(=O)c1cc(N[C@H](C)CO)nc(-c2cnn3ccc(-c4cccs4)nc23)c1 [Example 199, N—((S)-2-(diethylamino)propyl)-2-(((R)-1-hydroxypropan-2-yl)amino)-6-(5-(thiophen-2-yl)pyrazolo[1,5-a]pyrimidin-3-yl)isonicotinamide]"
20,77.4,"CCC(C)N[C@@H](C)CNC(=O)c1ccnc(-c2cnn3ccc(-c4ccccc4)nc23)c1 (stereo partly drawn) [Example 45, N-((2S)-2-(sec-butylamino)propyl)-2-(5-phenylpyrazolo[1,5-a]pyrimidin-3-yl)isonicotinamide]"
21,26,"CN(C)CCNC(=O)c1ccnc(-c2cnn3ccc(-c4cccs4)nc23)c1 [Example 9, N-(2-(dimethylamino)ethyl)-2-(5-(thiophen-2-yl)pyrazolo[1,5-a]pyrimidin-3-yl)isonicotinamide]"

row,Structure (SMILES),IC50 [nM]
1,"N[C@H]1C[C@@H]2CCC[C@H]1N2C(=O)c1ccnc(-c2cnn3ccc(-c4ccccc4)nc23)c1 [Example 88, ((1S,5R,6S)-6-amino-8-azabicyclo[3.2.1]octan-8-yl)(2-(5-phenylpyrazolo[1,5-a]pyrimidin-3-yl)pyridin-4-yl)methanone]",50.3
2,"CCC(CNC(=O)c1ccnc(-c2cnn3ccc(-c4cccs4)nc23)c1)NC(C)C (centres unmarked) [Example 31, N-(2-(isopropylamino)butyl)-2-(5-(thiophen-2-yl)pyrazolo[1,5-a]pyrimidin-3-yl)isonicotinamide]",12.1
